Test results from ChEMBL document CHEMBL4354835, “Selective Blockade of Neuronal BK (α + β4) Channels Preventing Epileptic Seizure” (J Med Chem, 2020).
Calls of active or inactive are those of the source. The rule behind the calls is not given here.

How the values were obtained:
Homo sapiens [1] = species on record: Homo sapiens; experiment: Inhibition of human BK alpha/human beta-4 E104K mutant expressed in HEK293T cells assessed as K+ fractional outward current at 10 uM at -80 mV holding potential by whole cell patch clamp technique relative to control; assay type: cell-based
Homo sapiens [2] = species on record: Homo sapiens; experiment: Inhibition of human BK alpha/human beta4 E122K mutant expressed in HEK293T cells assessed as K+ fractional outward current at 10 uM at -80 mV holding potential by whole cell patch clamp technique relative to control; assay type: cell-based
Rattus norvegicus [3] = species on record: Rattus norvegicus; experiment: Effect on neuronal network in PTZ-induced epileptic seizures Sprague-Dawley rat model assessed as lowered PSD at delta wave band compound infused into hippocampal region and 10 mins later injected with PTZ and measured after 2 hrs by power spectral density analysis; assay type: functional, organism-based
[4] = molecular target: T1, Calcium-activated potassium channel subunit beta-4 (Homo sapiens) (UniProt Q86W47); experiment: Binding affinity to 15N-labelled human BK beta4 (45 to 166 residues) at compound: protein mole ratio of 1:4 by 1H-15N HSQC NMR spectroscopy
T1 sequence (whole entry): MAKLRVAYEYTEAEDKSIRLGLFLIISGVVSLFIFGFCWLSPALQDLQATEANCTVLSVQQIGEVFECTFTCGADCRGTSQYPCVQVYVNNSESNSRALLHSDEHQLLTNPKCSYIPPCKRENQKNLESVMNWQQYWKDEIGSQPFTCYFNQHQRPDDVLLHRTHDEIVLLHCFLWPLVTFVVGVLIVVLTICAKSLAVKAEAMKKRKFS

[5] = molecular target: T2, Calcium-activated potassium channel subunit beta-4 (Homo sapiens, UniProt Q86W47); experiment: Binding affinity to NT-495 fluorophore reagent labelled human BK beta4 (45 to 166 residues) incubated for 30 mins by microscale thermophoresis assay; conditions: read-out: Kd
T2 sequence (Q86W47 whole entry): T1 sequence (whole entry)

Rattus norvegicus [6] = species on record: Rattus norvegicus; experiment: Anticonvulsant activity against PTZ-induced epileptic seizure Sprague-Dawley rat model assessed as mortality rate compound infused into hippocampal region and 10 mins later injected with PTZ and measured for 2 hrs post PTZ-stimulation (reference value: 33.33%); assay type: functional
[7] = molecular target: T3, KCNMA1/KCNMB4 (Rattus norvegicus) (UniProt Q62976+Q9ESK8); experiment: Inhibition of BK alpha/beta-4 in PTZ-stimulated rat hippocampal pyramidal neurons assessed as appearance of more action potential failures at -80mV holding potential measured after 10 mins during 300pA current injection by whole cell current clamp assay; assay type: protein-complex assay
Rattus norvegicus [8] = species on record: Rattus norvegicus; experiment: Inhibition of C-Fos expression in PTZ-induced epileptic seizures Sprague-Dawley rat model assessed as inhibition of FLI-positive pyramidal neurons in CA3 region of ipsilateral hippocampus at 10 uM compound infused into hippocampal region and 10 mins later injected with PTZ and measured after 2 hrs by immunohistochemistry; assay type: functional, organism-based
Rattus norvegicus [9] = species on record: Rattus norvegicus; experiment: Anticonvulsant activity against PTZ-induced epileptic seizures Sprague-Dawley rat model assessed as decrease in number of seizures at high stage (stage 4 and 5) compound infused into hippocampal region and 10 mins later injected with PTZ and measured for 2 hrs post-PTZ stimulation; assay type: functional, organism-based
[10] = molecular target: T3, KCNMA1/KCNMB4 (Rattus norvegicus); experiment: Inhibition of BK alpha/beta-4 in PTZ-stimulated rat hippocampal pyramidal neurons assessed as increase in AHP size at 300 pA at -80mV holding potential measured after 10 mins by whole cell current clamp assay; assay type: protein-complex assay
Rattus norvegicus [11] = species on record: Rattus norvegicus; experiment: Neuroprotective activity in PTZ-induced epileptic seizure Sprague-Dawley rat model assessed as inhibition of hippocampal destruction by measuring increase in Nissl stained pyramidal neurons in ipsilateral hippocampus CA3 region compound infused into hippocampal region and 10 mins later injected with PTZ and measured after 3 days by Nissl staining based microscopic analysis; assay type: functional, organism-based
[12] = molecular target: T3, KCNMA1/KCNMB4 (Rattus norvegicus); experiment: Inhibition of BK alpha/beta-4 in PTZ-stimulated rat hippocampal pyramidal neurons assessed as longer interval of interspike at -80mV holding potential measured after 10 mins during 300pA current injection by whole cell current clamp assay; assay type: protein-complex assay
Rattus norvegicus [13] = species on record: Rattus norvegicus; experiment: Effect on neuronal network in PTZ-induced epileptic seizures Sprague-Dawley rat model assessed as lowered PSD at gamma wave band compound infused into hippocampal region and 10 mins later injected with PTZ and measured after 2 hrs by power spectral density analysis; assay type: functional, organism-based

**Q.** For `CC[C@H](C)[C@H](NC(=O)[C@H](CC(C)C)NC(=O)CNC(=O)[C@H](Cc1ccccc1)NC(=O)[C@H](CO)NC(=O)CN)C(=O)N[C@@H](CC(=O)O)C(=O)N[C@H](C(=O)N[C@@H](CCCCN)C(=O)N[C@H]1CSSC[C@@H]2NC(=O)[C@H](CCCCN)NC(=O)CNC(=O)[C@H](CCC(N)=O)NC(=O)CNC(=O)[C@H](CO)NC(=O)CNC(=O)[C@H]([C@@H](C)O)NC(=O)[C@H](C(C)C)NC(=O)[C@H](CCCCN)NC(=O)[C@H](CCCCN)NC(=O)[C@@H]3CSSC[C@@H](C(=O)N[C@@H](Cc4ccc(O)cc4)C(=O)O)N[C@@H](CCCNC(=N)N)C(=O)[C@H](CSSC[C@H](NC(=O)[C@H](CCC(=O)O)NC(=O)[C@H](CO)NC(=O)[C@H](CO)NC(=O)[C@H](C)NC(=O)[C@H](Cc4ccccc4)NC1=O)C(=O)N[C@@H](Cc1c[nH]c4ccccc14)C(=O)N[C@@H]([C@@H](C)O)C(=O)N[C@@H](C)C(=O)N3)N[C@@H](CCC(N)=O)C(=O)NC(=O)[C@H](CC(N)=O)NC(=O)[C@H](CC(N)=O)NC(=O)[C@H](CCC(N)=O)NC2=O)C(C)C`, which Ratio (Homo sapiens [1]) is on record?
**A.** 0.94

**Q.** What about the Ratio (Homo sapiens [2]) of the same compound?
**A.** 0.88

**Q.** And the Activity (Rattus norvegicus [3])?
**A.** Active

**Q.** What about the Activity [4] of the same compound?
**A.** Active

**Q.** And the Kd [5]?
**A.** 511 µM

**Q.** And the mortality (Rattus norvegicus [6])?
**A.** 0%

**Q.** What about the inhibition [7] of the same compound?
**A.** Active

**Q.** What about the inhibition (Rattus norvegicus [8]) of the same compound?
**A.** Active

**Q.** And the Activity (Rattus norvegicus [9])?
**A.** Active

**Q.** And the inhibition [10]?
**A.** Active

**Q.** What about the Activity (Rattus norvegicus [11]) of the same compound?
**A.** Active

**Q.** What about the inhibition [12] of the same compound?
**A.** Active

**Q.** What about the Activity (Rattus norvegicus [13]) of the same compound?
**A.** Active
